How the values were obtained:
[1] = target: T1, human GPR120 (Homo sapiens, UniProt Q5NUL3); assay: GPR120 β-Arrestin Recruitment Assay (PathHunter, CHO-K1 cells); format: cell-based; conditions: pEC50=−log(EC50) from curve fit; CHO-K1 cells, 90 min incubation; read-out: β-Arr pEC50 (converted)
T1 construct: host or cells: CHO-K1
Source text: This in vitro assay tests compounds' ability to activate intracellular signaling via 3-Arrestin recruitment to heterologously expressed human GPR120. This functional cellular assay utilizes enzyme fragment complementation with β-galactosidlase (β-gal) as a functional reporter (DiscoveRx PathlHunter® β-Arrestin assay platform). The human (GPR120 receptor (GenBank accession Number NM_181745) was fused in frame with the small enzyme fragment ProLink™ and co-expressed in CHO-K1 cells with a fusion protein of β-Arrestin 2 and the larger, N-terminal deletion mutant of β-gal. Activation by a GPR120 agonist stimulates binding of β-arrestin to the ProLink-tagged GPCR and forces complementation of the two enzyme fragments, resulting in the formation of an active β-gal enzyme. This interaction leads to an increase in enzyme activity that can be measured using chemiluminescent PathHunter® Detection Reagents.
One day prior to the assay, cells were seeded in a total volume of 20 μl of growth medium into white walled 384-well microplates and incubated at 37° C./5% CO2 overnight. On the day of the assay, growth medium was removed and 20 μl assay buffer (HBSS+10 mM HEPES+0.1% heat-inactivated BSA) were added to each well.
Test compounds were dissolved in 100% DMSO to a concentration of 10 mM to provide stock solutions. Serial dilutions were performed from stock solutions into assay buffer to obtain intermediate concentrations of 5-fold higher than the concentrations to be tested. 5 μl of the 5× compound solutions were added to the cells and the assay plates were incubated at 37° C. for 90 minutes. The final concentration of compounds tested in the assay ranged from 1.5 nM to 100 μM. Following incubation, 12.5 μl of PathHunter® detection reagent were added to each well, and plates were incubated at room temperature for 60 minutes. Chemiluminescence was read using an EnVision plate reader (PerkinElmer), raw data were expressed as relative light units (RLU).
(§1) To determine agonist potencies (EC50 values), non-linear least-squares curve fits of the raw data (RLU) were performed in the GraphPad Prism software package, using the 4-parameter model with variable Hill Slope:
Reported below in Table 1 are pEC50 values (pEC50=−log(EC50) from curve fit) for compounds of Formula I in this assay, β-Arr pEC50 Alternatively, percent activation at a single concentration is reported.
T1 sequence (Q5NUL3 1-377 isoform Q5NUL3-1): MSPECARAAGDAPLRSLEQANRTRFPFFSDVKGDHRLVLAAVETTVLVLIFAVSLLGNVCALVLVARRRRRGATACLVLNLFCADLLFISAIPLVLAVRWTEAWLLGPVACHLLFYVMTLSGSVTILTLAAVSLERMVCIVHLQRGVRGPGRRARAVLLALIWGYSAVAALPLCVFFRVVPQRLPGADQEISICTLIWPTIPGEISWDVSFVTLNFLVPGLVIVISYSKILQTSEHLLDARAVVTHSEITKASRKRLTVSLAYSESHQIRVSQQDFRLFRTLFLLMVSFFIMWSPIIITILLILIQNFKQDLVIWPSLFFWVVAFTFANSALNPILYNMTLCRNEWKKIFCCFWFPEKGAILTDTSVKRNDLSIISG
T1 sequence (P32121 whole entry partner): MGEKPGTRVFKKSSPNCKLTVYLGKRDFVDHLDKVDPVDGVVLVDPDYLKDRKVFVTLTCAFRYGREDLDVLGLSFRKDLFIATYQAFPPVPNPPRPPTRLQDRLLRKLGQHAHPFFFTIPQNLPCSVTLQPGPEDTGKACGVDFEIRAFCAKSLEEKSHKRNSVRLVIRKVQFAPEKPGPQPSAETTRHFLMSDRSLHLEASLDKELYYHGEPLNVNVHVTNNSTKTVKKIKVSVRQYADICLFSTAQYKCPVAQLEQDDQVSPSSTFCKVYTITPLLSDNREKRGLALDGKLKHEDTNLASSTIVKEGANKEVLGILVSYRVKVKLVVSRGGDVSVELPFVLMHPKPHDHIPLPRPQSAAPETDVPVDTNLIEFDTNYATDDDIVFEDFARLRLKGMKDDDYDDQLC

[2] = target: T2, human GPR120 (Homo sapiens, UniProt Q5NUL3); assay: Human GPR120 Calcium-Release Assay (aequorin luminescence, CHO-K1 cells); format: cell-based; conditions: pEC50=−log(EC50) from curve fit; short variant of human GPR120 in CHO-K1 with Gα16 and apoaequorin; read-out: Ca2+ pEC50 (converted)
T2 construct: expressed in transfected cells; host or cells: CHO-K1 coexpressing Gα16 and mitochondrial apoaequorin
T2 sequence (Q5NUL3 1-361): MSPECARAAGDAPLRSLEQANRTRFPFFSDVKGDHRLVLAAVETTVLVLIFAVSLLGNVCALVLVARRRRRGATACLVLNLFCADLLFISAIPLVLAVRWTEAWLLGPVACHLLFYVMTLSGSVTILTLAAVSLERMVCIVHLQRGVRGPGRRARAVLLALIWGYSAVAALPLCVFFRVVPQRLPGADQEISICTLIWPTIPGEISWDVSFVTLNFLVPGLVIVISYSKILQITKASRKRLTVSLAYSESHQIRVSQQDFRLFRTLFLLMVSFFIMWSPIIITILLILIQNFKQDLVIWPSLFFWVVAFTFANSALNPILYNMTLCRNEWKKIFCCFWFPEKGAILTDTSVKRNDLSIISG
Source text: This in vitro assay tests compounds' ability to activate heterologously expressed human GPR120 via G-protein coupling leading to generation of inositol 1,4,5-triphosphate and mobilization of intracellular calcium. This functional cellular assay is based on the luminescence of mitochondrial aequorin following intracellular Ca^2+ release. Aequorin is a photoprotein isolated from the jellyfish Aequorea victoria. The active protein is formed in the presence of molecular oxygen from apoaequorin and its cofactor coelenterazine. Binding of Ca^2+ to the active protein induces a conformational change, resulting in oxidation of coelenterazine and subsequent blue luminescence.
The short variant of the human GPR120 receptor (GenBank accession Number AAI01176) was stably expressed in a CHO-K1 cell line coexpressing Gα16 and mitochondrial apoaequorin.
Cells were grown to mid-log phase in culture media without antibiotics, were detached with PBS/EDTA, centrifuged and resuspended in assay buffer (DMEM-F12 medium with 15 mM HEPES pH 7.0 and 0.1% protease free BSA) at a concentration of 10^6 cells/mL. Cells were incubated at room temperature for at least 4 hours with 5 μM coelenterazine h.
Test compounds were dissolved in 100% DMSO to a concentration of 20 mM to provide stock solutions. Serial dilutions were performed from stock solutions in 100% DMSO to obtain intermediate concentrations 200-fold higher than the concentrations to be tested. Each sample was diluted 100-fold into assay buffer. 50 μl of these compound solutions were dispensed into each well of 96-well assay plates. The final concentration of compounds tested in the assay ranged from 5 nM to 100 μM. α-Linolenic acid was used as a reference compound. Each test was performed in duplicate.
To start the assay, 50 μl of cell suspension were added to each well of the assay plate. The resulting luminescence was recorded using a Hamamatsu Functional Drug Screening System 6000 (FDSS 6000), and raw data were expressed as relative light units (RLU).
as §1
Reported below in Table 1 are pEC50 values (pEC50=−log(EC50) from curve fit) for representative compounds of Formula I in this assay, Ca2+pEC50.

EC50 [1] [nM] | EC50 [2] [nM] | Compound
> 10000 | 794 | O=S1(=O)c2ccccc2CN1c1ccnc(Oc2ccccc2F)n1 [Compound 56]
2510 | 631 | O=S1(=O)c2ccccc2CN1c1ccnc(OC2CCC2)n1 [Compound 58]
6310 | 12600 | O=S1(=O)c2ccccc2CN1c1ccnc(OC2CCCCC2)n1 [Compound 59]
1580 | 501 | O=S1(=O)c2ccccc2CN1c1ccnc(OC2CCCC2)n1 [Compound 60]
> 31600 | > 100000 | CN1CC(Oc2nccc(N3Cc4ccccc4S3(=O)=O)n2)C1 [Compound 61]
501 | > 100000 | CN1CCC(Oc2nccc(N3Cc4ccccc4S3(=O)=O)n2)C1 (stereo not drawn) [Compound 63]
> 10000 | 6310 | CCOc1nccc(N2Cc3ccccc3S2(=O)=O)n1 [Compound 67]
> 10000 | > 100000 | O=S1(=O)c2ccccc2CN1c1ccnc(OCc2ccccn2)n1 [Compound 72]
2510 | 1000 | Cc1cc(N2Cc3ccccc3S2(=O)=O)nc(Oc2cccnc2)n1 [Compound 77]
1580 | 3980 | O=S1(=O)c2ccccc2CN1c1cc(C(F)(F)F)nc(Oc2cccnc2)n1 [Compound 78]
1580 | 501 | COc1cc(N2Cc3ccccc3S2(=O)=O)nc(Oc2cccnc2)n1 [Compound 79]
501 | 2510 | COc1cc(Oc2cccnc2)nc(N2Cc3ccccc3S2(=O)=O)n1 [Compound 80]
2510 | 1260 | CCc1cc(N2Cc3ccccc3S2(=O)=O)nc(Oc2cccnc2)n1 [Compound 82]
2510 | 794 | O=S1(=O)c2ccccc2CN1c1cc(C2CC2)nc(Oc2cccnc2)n1 [Compound 83]
251 | 398 | Cc1cc(N2Cc3ccccc3S2(=O)=O)nc(Oc2ccc(Cl)cc2)n1 [Compound 86]
794 | 1580 | Cc1cc(Oc2ccc(Cl)cc2)nc(N2Cc3ccccc3S2(=O)=O)n1 [Compound 87]
2510 | 20000 | CNC(=O)c1cc(N2Cc3ccccc3S2(=O)=O)nc(Oc2ccc(Cl)cc2)n1 [Compound 89]
1000 | > 10000 | COc1cc(Oc2ccc(Cl)cc2)nc(N2Cc3ccccc3S2(=O)=O)n1 [Compound 96]
631 | 1000 | O=S1(=O)c2ccccc2CN1c1cc(C(F)(F)F)nc(Oc2ccc(Cl)cc2)n1 [Compound 97]
794 | 2510 | O=S1(=O)c2ccccc2CN1c1cc(C(F)(F)F)nc(Oc2ccccc2)n1 [Compound 98]
501 | 158 | COc1cc(N2Cc3ccccc3S2(=O)=O)nc(Oc2ccc(F)cc2)n1 [Compound 99]
398 | > 100 | COc1cc(Oc2ccc(F)cc2)nc(N2Cc3ccccc3S2(=O)=O)n1 [Compound 101]
1000 | 200 | Cc1cc(N2Cc3ccccc3S2(=O)=O)nc(Oc2ccc(F)cc2)n1 [Compound 106]
12600 | 15800 | O=S1(=O)c2ccccc2CN1c1nccc(Oc2cccnc2)n1 [Compound 114]
1580 | 200 | O=S1(=O)c2ccccc2CN1c1cccc(Oc2cccnc2)n1 [Compound 121]
> 10000 | 501 | O=C1c2ccccc2CN1c1cccc(Oc2cccnc2)n1 [Compound 122]
> 31600 | > 100000 | O=S1(=O)c2ccccc2CN1c1cccc(Oc2cccc(Cl)c2)n1 [Compound 123]
39.8 | 79.4 | Cc1cc(OC2CCC2)nc(N2Cc3ccccc3S2(=O)=O)c1 [Compound 128]
158 | 316 | Cc1cc(Oc2ccc(Cl)cc2)nc(N2Cc3ccccc3S2(=O)=O)c1 [Compound 131]
39800 | 1260 | O=S1(=O)c2ccccc2CN1c1cncc(Oc2cccnc2)n1 [Compound 142]
